From US20250221979A1, “NOVEL HETEROCYCLIC COMPOUND” (SHOUYAO HOLDINGS (BEIJING) CO., LTD., priority 2022, published 2025)
pIC50: −log10 of the molar value.

Each molecule was assayed against human MAT2A enzyme (Homo sapiens (Human), UniProt P31153) (assay: In vitro enzymatic inhibition activity assay on MAT2A (PiColorLock phosphate detection)). Conditions: purified human MAT2A 10 nM, ATP 50 μM, L-methionine 100 μM, 6 h at 23° C.; read-out: MAT2A inhibitory activity IC50.
Sequence of human MAT2A enzyme (P31153 whole entry): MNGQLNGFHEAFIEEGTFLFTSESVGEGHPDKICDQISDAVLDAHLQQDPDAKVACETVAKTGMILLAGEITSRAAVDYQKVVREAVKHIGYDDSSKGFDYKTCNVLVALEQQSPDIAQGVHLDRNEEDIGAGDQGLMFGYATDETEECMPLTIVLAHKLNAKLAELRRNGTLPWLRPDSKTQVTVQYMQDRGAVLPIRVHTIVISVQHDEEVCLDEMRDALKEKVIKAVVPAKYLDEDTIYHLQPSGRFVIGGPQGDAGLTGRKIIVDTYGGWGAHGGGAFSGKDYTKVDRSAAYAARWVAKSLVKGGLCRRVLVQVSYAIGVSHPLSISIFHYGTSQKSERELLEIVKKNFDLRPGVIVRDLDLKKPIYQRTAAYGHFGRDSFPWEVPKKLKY
Format: biochemical
Protocol: Enzymatic activity assays of compounds of this patent against MAT2A (to detect half inhibitory concentration IC50 values of the compounds) were performed using the phosphate detection kit PiColorLockTM (ab270004, purchased from Abcam). This method utilized the principle that purified human MAT2A enzyme catalyzes the formation of S-adenosylmethionine (SAM) from L-methionine and ATP to release free phosphate, and used the spectrophotometric method to quantify phosphate, so as to determine the enzymatic activity of MAT2A. Compounds were diluted in a 10-fold gradient starting at 1 mM with 100% DMSO (for a total of 8 concentrations) and 2 μL of each concentration was added to 48 μL of reaction buffer (50 mM Tris-HCl PH 7.5, 50 mM KCl, 10 mM MgCl2, 0.01% Brij-35, 0.01% BSA, 1 mM DTT) and mixed well. The final diluted compound was prepared, and 5 μL of MAT2A enzyme (final concentration of 10 nM), 5 μL of ATP (final concentration of 50 μM), and 5 μL of L-methionine (final concentration of 100 μM) were added to each well of a 384-well plate (#3701, purchased from CORNING). After the 384-well plate was placed in the incubator at 23° C. for 6 h, 5 μL of PiColorLock reagent diluted Accelerator (dilution ratio 1:100) was added to each well, and the reaction was stopped by incubating in the incubator at 23° C. for 5 min. 2 μL of Stabiliser was added, the absorbance was read at 630 nm on BMG CLARIOstar, and the IC50 value of the compound was calculated by using GraphPad Prism software.
Under the conditions of this experiment, the inhibition of MAT2A by test compounds can be expressed as an IC50 value for the inhibition of the level of phosphate production during the enzymatic reaction.
`COC(=O)c1c(N)c2c(F)cc(Br)cc2n(-c2ccc(N)cc2)c1=O` [Example 339, methyl 4-amino-1-(4-aminophenyl)-7-bromo-5-fluoro-2-oxo-1,2-dihydroquinoline-3-carboxylate] gave a pIC50 of 8.64. `COC(=O)c1c(N)c2ccc(C(F)(F)F)cc2n(-c2ccc([C@H](C)O)cc2)c1=O` [Example 271, methyl 4-amino-1-(4-(1-(S)-hydroxyethyl)phenyl)-2-oxo-7-(trifluoromethyl)-1,2-dihydroquinoline-3-carboxylate] gave a pIC50 of 8.74. For `COC(=O)c1c(N)c2ccc(Br)c(F)c2n(-c2ccc(N)cc2)c1=O` [Example 338, methyl 4-amino-1-(4-aminophenyl)-7-bromo-8-fluoro-2-oxo-1,2-dihydroquinoline-3-carboxylate], the pIC50 was 8.84. Work on `COC(=O)c1c(N)c2ccc(C3CC3)cc2n(-c2ccc(OC)cc2)c1=O` [Example 73, methyl 4-amino-7-cyclopropyl-1-(4-methoxyphenyl)-2-oxo-1-phenyl-1,2-dihydroquinoline-3-carboxylate] yielded a pIC50 of 8.78. `COC(=O)c1c(N)c2ccc(C(F)(F)F)cc2n(-c2ccc(C=O)cc2)c1=O` [Example 164, methyl 4-amino-1-(4-formylphenyl)-2-oxo-7-(trifluoromethyl)-1,2-dihydroquinoline-3-carboxylate] was tested, and the pIC50 was 8.12. With `COC(=O)c1c(N)c2ccc(C(F)(F)F)nc2n(-c2ccc(N)cc2C)c1=O` [Example 282, methyl 4-amino-1-(4-amino-2-methylphenyl)-2-oxo-7-(trifluoromethyl)-1,2-dihydro-1,8-naphthyridine-3-carboxylate] the pIC50 was 8.66. `COC(=O)c1c(N)c2ccc(Br)nc2n(-c2cccc3c(C)nccc23)c1=O` [Example 290, methyl 4-amino-1-(1-methylisoquinolin-5-yl)-7-bromo-2-oxo-1,2-dihydro-1,8-naphthyridine-3-carboxylate] gave a pIC50 of 9.10. With `COC(=O)c1c(N)c2ccc(I)cc2n(-c2cccc3c2CCO3)c1=O` [Example 59, methyl 4-amino-1-(2,3-dihydro-1-benzofuran-4-yl)-7-iodo-2-oxo-1,2-dihydro quinoline-3-carboxylate] the pIC50 was 8.29. With `COC(=O)c1c(N)c2ccc(C(F)(F)F)cc2n(-c2ccc3ccncc3c2)c1=O` [Example 224, methyl 4-amino-1-(isoquinolin-7-yl)-2-oxo-7-(trifluoromethyl)-1,2-dihydroquinoline-3-carboxylate] the pIC50 was 8.55. `COC(=O)c1c(N)c2ccc(C(C)(F)F)cc2n(-c2ccc([C@@H](C)O)cc2)c1=O` [Example 358, methyl 4-amino-7-(1,1-difluoroethyl)-1-(4-((1R)-1-hydroxyethyl)phenyl)-2-oxo-1,2-dihydroquinoline-3-carboxylate] was tested, and the pIC50 was 8.87. Work on `COC(=O)c1c(N)c2ccc(C(F)(F)F)cc2n(-c2ccc(C(C)O)c(F)c2)c1=O` (centres unmarked) [Example 158, methyl 4-amino-1-(3-fluoro-4-(1-hydroxyethyl)phenyl)-2-oxo-7-(trifluoromethyl)-1,2-dihydroquinoline-3-carboxylate] yielded a pIC50 of 8.42. `COC(=O)c1c(N)c2ccc(Br)cc2n(-c2ccc(OC)cc2)c1=O` [Example 87, methyl 4-amino-7-bromo-1-(4-methoxyphenyl)-2-oxo-1,2-dihydroquinoline-3-carboxylate] showed a pIC50 of 8.73. `COC(=O)c1c(N)c2ccc(OC)cc2n(-c2ccc([C@@H](C)O)cc2)c1=O` [Example 365, methyl (R)-4-amino-1-(4-(1-hydroxyethyl)phenyl)-7-methoxy-2-oxo-1,2-dihydroquinoline-3-carboxylate] showed a pIC50 of 8.69. In the case of `COC(=O)c1c(N)c2ccc(C3CC3)nc2n(-c2ccc(C)nc2)c1=O` [Example 377, methyl 4-amino-7-cyclopropyl-1-(6-methylpyridin-3-yl)-2-oxopyrido[2,3-b]pyridin-3-carboxylate], the pIC50 was 8.72. `COC(=O)c1c(N)c2ccc(Br)nc2n(-c2ccc(I)cc2)c1=O` [Example 275, methyl 4-amino-7-bromo-1-(4-iodophenyl)-2-oxo-1,2-dihydro-1,8-naphthyridine-3-carboxylate] was tested, and the pIC50 was 9.82. For `COC(=O)c1c(N)c2ccc(C(F)F)cc2n(-c2ccc([C@@H](C)O)cc2)c1=O` [Example 357, methyl (R)-4-amino-7-(difluoromethyl)-1-(4-(1-hydroxyethyl)phenyl)-2-oxo-1,2-dihydroquinoline-3-carboxylate], the pIC50 was 9.27. Work on `COC(=O)c1c(N)c2ccc(C(F)(F)F)cc2n(-c2ccc(Cl)cc2C)c1=O` [Example 151, methyl 4-amino-1-(4-chloro-2-methylphenyl)-2-oxo-7-(trifluoromethyl)-1,2-dihydroquinoline-3-carboxylate] yielded a pIC50 of 8.54. `COC(=O)c1c(N)c2ccc(C(F)(F)F)nc2n(-c2ccc([C@@H](C)O)cc2)c1=O` [Example 348, methyl 4-amino-(1-(4-(1R)-1-hydroxyethyl)phenyl)-7-(trifluoromethyl)-2-oxo-pyrido[2,3-b]pyridin-3-carboxylate] was tested, and the pIC50 was 8.88. `COC(=O)c1c(N)c2ccc(I)cc2n(-c2ccccc2)c1=O` [Example 16, methyl 4-amino-7-iodo-2-oxo-1-phenyl-1,2-dihydroquinoline-3—carboxylate] was tested, and the pIC50 was 8.91. Molecule `COC(=O)c1c(N)c2ccc(C(F)(F)F)cc2n(-c2ccc(I)cc2)c1=O` [Example 125, methyl 4-amino-1-(4-iodophenyl)-2-oxo-7-(trifluoromethyl)-1,2-dihydroquinoline-3-carboxylate] has a pIC50 of 8.57. For `COC(=O)c1c(N)c2ccc(Br)cc2n(-c2ccc(C(C)O)nc2)c1=O` (centres unmarked) [Example 352, methyl 4-amino-7-bromo-1-(6-(1-hydroxyethyl)pyridin-3-yl)-2-oxo-1,2-dihydroquinoline-3-carboxylate], the pIC50 was 8.59. `[2H]C([2H])([2H])OC(=O)c1c(N)c2ccc(C(F)(F)F)nc2n(-c2ccc(C(C)O)cc2)c1=O` (centres unmarked) [Example 310, methyl-d3 4-amino-1-(4-(1-hydroxyethyl)phenyl)-2-oxo-7-(trifluoromethyl)-1,2-dihydro-1,8-naphthyridine-3-carboxylate] was tested, and the pIC50 was 9.13. `[2H]C([2H])([2H])OC(=O)c1c(N)c2ccc(OC(F)(F)F)cc2n(-c2ccc([C@@H](C)O)cc2)c1=O` [Example 393, methyl-d3 4-amino-1-(4-((1R)-1-hydroxyethyl)phenyl)-2-oxo-7-(trifluoromethoxy)-1,2-dihydroquinoline-3-carboxylate] was tested, and the pIC50 was 8.82. With `COC(=O)c1c(N)c2ccc(Br)nc2n(-c2ccc(C(C)O)nc2)c1=O` (centres unmarked) [Example 332, methyl 4-amino-7-bromo-1-(6-(1-hydroxyethyl)pyridin-3-yl)-2-oxo-1,2-dihydro-1,8-naphthyridine-3-carboxylate] the pIC50 was 8.64. `COC(=O)c1c(N)c2ccc(Br)nc2n(-c2ccc(N)cc2Cl)c1=O` [Example 295, methyl 4-amino-1-(4-amino-2-chlorophenyl)-2-oxo-7-bromo-1,2-dihydro-1,8-naphthyridine-3-carboxylate] was tested, and the pIC50 was 9.05. Work on `CCOC(=O)c1c(N)c2ccc(Br)cc2n(-c2ccc3ncoc3c2)c1=O` [Example 257, ethyl 4-amino-1-(benzo[d]oxazol-6-yl)-7-bromo-2-oxo-1,2-dihydroquinoline-3-carboxylate] yielded a pIC50 of 8.68. `COC(=O)c1c(N)c2ccc(C(F)(F)F)cc2n(-c2ccc3nc[nH]c3c2)c1=O` [Example 76, methyl 4-amino-1-(3H-benzo[d]imidazol-5-yl)-2-oxo-7-(trifluoromethyl)-1,2-dihydroquinoline-3-carboxylate] was tested, and the pIC50 was 8.77. In the case of `COC(=O)c1c(N)c2ccc(Br)cc2n(-c2ccc(F)cc2)c1=O` [Example 78, methyl 4-amino-7-bromo-1-(4-fluorophenyl)-2-oxo-1,2-dihydroquinoline-3-carboxylate], the pIC50 was 8.57. In the case of `COC(=O)c1c(N)c2ccc(C(F)(F)F)cc2n(-c2cn[nH]c2)c1=O` [Example 159, methyl 4-amino-2-oxo-1-(1H-pyrazol-4-yl)-7-(trifluoromethyl)-1,2-dihydroquinoline-3-carboxylate], the pIC50 was 8.54. In the case of `COC(=O)c1c(N)c2ccc(C(F)(F)F)cc2n(-c2ccc3c(c2)C(O)CC3)c1=O` (centres unmarked) [Example 137, methyl 4-amino-1-(3-hydroxy-2,3-dihydro-1H-inden-5-yl)-2-oxo-7-(trifluoromethyl)-1,2-dihydroquinoline-3-carboxylate], the pIC50 was 8.48. With `COC(=O)c1c(N)c2ccc(I)cc2n(-c2ccccc2C)c1=O` [Example 19, methyl 4-amino-7-iodo-1-(2-methylphenyl)-2-oxo-1,2-dihydroquinoline-3-carboxylate] the pIC50 was 8.63. `COC(=O)c1c(N)c2ccc(Br)cc2n(-c2ccc(C(C)O)nc2)c1=O` (centres unmarked) [Example 291, methyl 4-amino-1-(6-(1-hydroxyethyl)pyridin-3-yl)-2-oxo-7-bromo-1,2-dihydroquinoline-3-carboxylate] gave a pIC50 of 8.66.
